# Laboratory results as given in publication PMC5352556 (Journal of chemical neuroanatomy, 2016).
# Counter-ions that a name gives are not always drawn.
# Columns and labels:
# Type in all cases: cell-based
# human PMAT (hPMAT) = biological target: T1, human PMAT (hPMAT) (Homo sapiens, UniProt Q7RTT9); experiment: Concentration dependence of hPMAT-mediated substrate uptake in MDCK/hPMAT cells; conditions: hPMAT-mediated uptake, MDCK/hPMAT minus mock, 3 min, 37 °C, pH 7.4
# T1 sequence (Q7RTT9 1-530): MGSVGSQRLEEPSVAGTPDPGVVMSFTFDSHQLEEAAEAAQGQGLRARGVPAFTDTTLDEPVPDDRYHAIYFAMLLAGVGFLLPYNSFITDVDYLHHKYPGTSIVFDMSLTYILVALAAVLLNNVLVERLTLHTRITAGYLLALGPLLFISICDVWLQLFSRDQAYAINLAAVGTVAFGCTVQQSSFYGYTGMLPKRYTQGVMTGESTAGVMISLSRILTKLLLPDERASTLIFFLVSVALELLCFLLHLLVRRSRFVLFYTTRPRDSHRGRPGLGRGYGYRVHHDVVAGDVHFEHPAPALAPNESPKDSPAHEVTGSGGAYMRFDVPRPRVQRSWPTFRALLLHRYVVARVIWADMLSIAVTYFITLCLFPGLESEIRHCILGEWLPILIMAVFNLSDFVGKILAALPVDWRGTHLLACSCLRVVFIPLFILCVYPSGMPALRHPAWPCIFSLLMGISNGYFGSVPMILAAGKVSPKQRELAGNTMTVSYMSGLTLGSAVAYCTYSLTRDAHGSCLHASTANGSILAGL
# rat Pmat (rPmat) = experiment: Concentration dependence of rPmat-mediated substrate uptake in MDCK/rPmat cells; conditions: rPmat-mediated uptake, MDCK/rPmat minus mock, 3 min, 37 °C, pH 7.4
# mouse Pmat (mPmat) = biological target: T2, mouse Pmat (mPmat) (Mus musculus, UniProt Q8R139); conditions: mPmat-mediated uptake, Flp293/mPmat minus mock, 2 min, 37 °C, pH 7.4
# T2 sequence (Q8R139 1-528): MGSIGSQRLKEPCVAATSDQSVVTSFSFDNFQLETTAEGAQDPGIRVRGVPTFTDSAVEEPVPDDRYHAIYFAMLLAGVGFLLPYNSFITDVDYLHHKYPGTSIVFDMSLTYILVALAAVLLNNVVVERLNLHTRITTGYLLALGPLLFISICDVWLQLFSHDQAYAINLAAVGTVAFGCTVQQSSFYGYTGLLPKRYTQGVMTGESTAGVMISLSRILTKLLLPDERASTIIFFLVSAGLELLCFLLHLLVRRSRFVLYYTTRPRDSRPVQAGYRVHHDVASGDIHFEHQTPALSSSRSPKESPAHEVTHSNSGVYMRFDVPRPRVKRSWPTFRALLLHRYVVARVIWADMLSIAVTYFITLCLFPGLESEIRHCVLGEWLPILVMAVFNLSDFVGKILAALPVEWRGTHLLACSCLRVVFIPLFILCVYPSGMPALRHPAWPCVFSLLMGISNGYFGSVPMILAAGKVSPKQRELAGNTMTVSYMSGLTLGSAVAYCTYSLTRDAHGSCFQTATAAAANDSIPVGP
smiles,measurement,setting,value
"[3H]c1c([3H])c(CCN)c([3H])c(O)c1O [Dopamine, 3,4-dihydroxy-[2,5,6-^3H]phenylethylamine]",Km,human PMAT (hPMAT),201 ± 34 µM
same,Vmax,human PMAT (hPMAT),1.43 ± 0.08 nmol/min/mg protein
same,Km,rat Pmat (rPmat),271 ± 50 µM
same,Vmax,rat Pmat (rPmat),0.750 ± 0.049 nmol/min/mg protein
same,Vmax,rat Pmat (rPmat); listed as dopamine,0.750 ± 0.049 nmol/min/mg protein
"C[n+]1ccc(-c2ccccc2)cc1 [MPP^+, 1-methyl-4-phenylpyridinium]",Km,human PMAT (hPMAT),33.7 ± 6 µM
same,Vmax,human PMAT (hPMAT),0.490 ± 0.190 nmol/min/mg protein
same,Km,rat Pmat (rPmat),70.2 ± 12.3 µM
same,Vmax,rat Pmat (rPmat),0.210 ± 0.011 nmol/min/mg protein
same,Km,mouse Pmat (mPmat),49.5 ± 0.1 µM
same,Vmax,mouse Pmat (mPmat),1.59 ± 0.068 nmol/min/mg protein
"NCCc1c[nH]c2ccc(O)cc12 [Serotonin, 5-hydroxy-[1,2-^3H]tryptamine creatinine sulfate]",Km,human PMAT (hPMAT),116 ± 27 µM
same,Km,rat Pmat (rPmat),82.9 ± 21.2 µM
same,Vmax,rat Pmat (rPmat),1.26 ± 0.12 nmol/min/mg protein
